Source: US20140045890A1, “NOVEL COMPOUNDS” (SYNGENTA PARTICIPATIONS AG, priority 2011, published 2014)

Columns and labels:
[1] = tested on: Plasmopara viticola; assay: Plasmopara viticola / grape / leaf disc preventative; type: in vivo; details: foliar, grape vine leaf disks, inoculated 1 day after application, assessed 6-8 days after application, read-out: inhibit fungal infestation (percent disease control compared to untreated)
[2] = tested on: Pythium ultimum; assay: Pythium ultimum / liquid culture (seedling damping off); type: cell-based; details: Globisporangium ultimum, liquid culture in PDB, 24° C., 2-3 days after application, read-out: inhibit fungal infestation (inhibition of growth determined photometrically)
[3] = tested on: Phytophthora infestans; assay: whole plant or invertebrate; type: in vivo; details: in Solanum lycopersicum, foliar, read-out: inhibit fungal infestation (percent disease control compared to untreated)
[4] = tested on: Blumeria qraminis f. sp. tritici (Erysiphe qraminis f. sp. tritici); assay: Blumeria graminis f. sp. tritici / wheat / leaf disc preventative (powdery mildew on wheat); type: in vivo; details: foliar, wheat leaf segments cv. Kanzler, inoculated 1 day after application, assessed 6-8 days after application, read-out: inhibit fungal infestation (percent disease control compared to untreated)

| SMILES | inhibition at 200 ppm [1] [%] | inhibition at 200 ppm [2] [%] | inhibition at 200 ppm [3] [%] | inhibition at 200 ppm [4] [%] |
| --- | --- | --- | --- | --- |
| CSc1cnc2ccc(OC(SC)C(=O)NC(C)(C)c3cc(C)on3)cc2c1 (stereo not shown) [Compound 66] | ≥ 80 | ≥ 80 |  |  |
| COCc1cc(C(C)(C)NC(=O)C(Oc2ccc3ncc(SC)cc3c2)SC)no1 (stereo not shown) [Compound 100] | ≥ 80 | ≥ 80 | ≥ 80 |  |
| C#Cc1cnc2cc(F)c(OC(SC)C(=O)NC(C)(C)c3cc(C)on3)cc2c1 (stereo not shown) [Compound 70] |  |  | ≥ 80 |  |
| C#Cc1cnc2ccc(OC(SC)C(=O)NC(C)(C)c3cc(CC)on3)cc2c1 (stereo not shown) [Compound 82] | ≥ 80 | ≥ 80 | ≥ 80 | ≥ 80 |
| CSc1cnc2ccc(OC(SC)C(=O)NCc3nccs3)cc2c1 (stereo not shown) [Compound 118] |  | ≥ 80 |  |  |
| C#Cc1cnc2c(F)cc(OC(SC)C(=O)NC(C)(C)c3nocc3C)cc2c1 (stereo not shown) [Compound 77] | ≥ 80 | ≥ 80 | ≥ 80 | ≥ 80 |
| C#Cc1cnc2ccc(OC(SC)C(=O)NC(C)(C)c3csc([Si](C)(C)C)n3)cc2c1 (stereo not shown) [Compound 58] |  | ≥ 80 |  |  |
| C#Cc1cnc2c(F)cc(OC(SC)C(=O)NC(C)(C)c3cc(COC)on3)cc2c1 (stereo not shown) [Compound 89] | ≥ 80 | ≥ 80 | ≥ 80 | ≥ 80 |
| C#Cc1cnc2ccc(OC(SC)C(=O)NCc3ncc(C)s3)cc2c1 (stereo not shown) [Compound 79] |  | ≥ 80 |  | ≥ 80 |
| C#Cc1cnc2ccc(OC(SC)C(=O)NC(C)(C)c3cccnc3)cc2c1 (stereo not shown) [Compound 57] |  | ≥ 80 |  |  |
| C#Cc1cnc2c(C)cc(OC(SC)C(=O)NC3(c4ccccn4)CC3)cc2c1 (stereo not shown) [Compound 38] | ≥ 80 | ≥ 80 |  |  |
| CSC(Oc1ccc2ncc(I)cc2c1)C(=O)NC(C)(C)c1cc(C)on1 (stereo not shown) [Compound 109] | ≥ 80 | ≥ 80 | ≥ 80 | ≥ 80 |
| CSc1cnc2ccc(OC(SC)C(=O)NC(C)(C)c3cc(C(F)(F)F)on3)cc2c1 (stereo not shown) [Compound 104] | ≥ 80 | ≥ 80 |  |  |
| CSc1cnc2ccc(OC(SC)C(=O)NC(C)(C)c3cccc(C)n3)cc2c1 (stereo not shown) [Compound 114] |  | ≥ 80 |  |  |
| C#Cc1cnc2c(C)cc(OC(SC)C(=O)NC(C)(C)c3cc(CO)on3)cc2c1 (stereo not shown) [Compound 43] | ≥ 80 | ≥ 80 | ≥ 80 |  |
| C#Cc1cnc2ccc(OC(SC)C(=O)NC(C)(C)c3noc(C)c3Cl)cc2c1 (stereo not shown) [Compound 54] | ≥ 80 | ≥ 80 | ≥ 80 | ≥ 80 |
| C#Cc1cnc2c(F)cc(OC(SC)C(=O)NC(C)(C)c3cc(C(F)(F)F)on3)cc2c1 (stereo not shown) [Compound 91] | ≥ 80 |  | ≥ 80 |  |
| C#Cc1cnc2c(F)cc(OC(SC)C(=O)NCc3nccs3)cc2c1 (stereo not shown) [Compound 115] |  | ≥ 80 |  | ≥ 80 |
| C#Cc1cnc2ccc(OC(SC)C(=O)NC(C)(C)c3nocc3I)cc2c1 (stereo not shown) [Compound 49] | ≥ 80 | ≥ 80 | ≥ 80 |  |
| C#Cc1cnc2ccc(OC(SC)C(=O)NC(C)(C)c3nc(C)c(C)s3)cc2c1 (stereo not shown) [Compound 63] |  | ≥ 80 |  | ≥ 80 |
| CSC(Oc1ccc2ncc(I)cc2c1)C(=O)NC(C)(C)c1nocc1C (stereo not shown) [Compound 110] | ≥ 80 | ≥ 80 | ≥ 80 | ≥ 80 |
| C#Cc1cnc2c(Cl)cc(OC(SC)C(=O)NC(C)(C)c3cc(C(F)(F)F)on3)cc2c1 (stereo not shown) [Compound 99] | ≥ 80 |  |  |  |
| C#Cc1cnc2ccc(OC(SC)C(=O)NC(C)(C)c3ccncc3)cc2c1 (stereo not shown) [Compound 35] |  | ≥ 80 |  |  |
| CSc1cnc2ccc(OC(SC)C(=O)NC(C)(C)c3nocc3C)cc2c1 (stereo not shown) [Compound 74] |  | ≥ 80 |  |  |
| C#Cc1cnc2ccc(OC(SC)C(=O)NC(C)(C)c3nocc3Br)cc2c1 (stereo not shown) [Compound 64] | ≥ 80 | ≥ 80 | ≥ 80 | ≥ 80 |
| C#Cc1cnc2c(F)cc(OC(SC)C(=O)NCc3nc(C)cs3)cc2c1 (stereo not shown) [Compound 119] | ≥ 80 | ≥ 80 |  | ≥ 80 |
| C#Cc1cnc2ccc(OC(SC)C(=O)NC(C)(C)c3noc4ccccc34)cc2c1 (stereo not shown) [Compound 50] | ≥ 80 | ≥ 80 |  |  |
